{"source": "BindingDB's records for doi:10.1074/jbc.M113.510743", "about": "(Max Planck Institute of Biophysics, 2014)", "molecular_target": "T1, APC family lysine-specific permease (Salmonella typhimurium (strain LT2 / SGSC1412 / ATCC 700720), UniProt Q8ZNK9)", "T1 sequence (Q8ZNK9 whole entry)": "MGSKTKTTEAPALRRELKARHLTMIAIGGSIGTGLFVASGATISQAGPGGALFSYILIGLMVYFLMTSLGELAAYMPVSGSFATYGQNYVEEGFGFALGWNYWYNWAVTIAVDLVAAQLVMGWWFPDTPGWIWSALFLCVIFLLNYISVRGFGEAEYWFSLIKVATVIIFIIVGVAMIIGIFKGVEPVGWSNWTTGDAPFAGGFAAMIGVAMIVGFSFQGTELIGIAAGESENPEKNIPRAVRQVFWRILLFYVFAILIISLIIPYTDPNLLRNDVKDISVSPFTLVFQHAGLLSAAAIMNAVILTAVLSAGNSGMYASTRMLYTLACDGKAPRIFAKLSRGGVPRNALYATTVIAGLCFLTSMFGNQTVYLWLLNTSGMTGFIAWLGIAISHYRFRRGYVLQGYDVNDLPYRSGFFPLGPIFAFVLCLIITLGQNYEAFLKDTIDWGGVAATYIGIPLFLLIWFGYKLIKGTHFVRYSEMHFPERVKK", "experiment": "Isothermal Titration Calorimetry (ITC)", "conditions": "pH 5.9; 20 °C", "method": "ITC measurements were carried out at 20 °C with a VP-ITC calorimeter (GE Healthcare, MicroCal, Inc.) consisting of a 1.45-ml reaction cell. STM2200 in 20 mM MES-NaOH, 150 mM NaCl, 0.025% (w/v) β-DDM, pH 5.9 at concentrations ranging between 15 and 30 μM was titrated with ligands under conditions where the sum of the ionic strengths of ligand and NaCl was always 150 mM. After an initial 4-μl injection, all subsequent ligand additions consisted of 5 μl every 240-300 s. Stirring was at 307 rpm."}
{"smiles": "NCCCC[C@H](N)C(=O)O", "note": "[(2S)-2,6-diaminohexanoic acid]", "values": [{"measurement": "Kd", "result": 40, "unit": "µM"}]}
{"smiles": "NCCCC[C@@H](N)C(=O)O", "note": "[(2R)-2,6-diaminohexanoic acid]", "values": [{"measurement": "Kd", "result": 1800, "unit": "µM"}]}
